Reference: article PMC8231349 (Journal of Enzyme Inhibition and Medicinal Chemistry, 2021)
“And” between values parts separate entries of the source, which are not always exact repeats. Equal entries are not always repeated. Each block holds one compound with its values, some of them ahead of it.

Tests used:
[1] = test system: human lung cancer cells (A549); test: MTT cell viability assay, A549; format: cell-based; details: 72 h
Protocol: (§1) Experiments were performed on human prostate cancer cells (DU145; ATCC HTB-81), human lung cancer cells (A549; ATCC CCL-185-LUC2) and human bronchial epithelium cells (BEAS-2B; ATCC CRL-9609). Cells were grown in Dulbecco's modified Eagle's medium (DMEM) supplemented with 10% of heat-inactivated foetal bovine serum (FBS), 100 U/ml penicillin and 100 μg/ml streptomycin (Sigma-Aldrich, Steinheim, Germany). Cells were incubated at 37 °C in a humidified atmosphere with 5% CO2. […] Cells were seeded into 96-well plates at a density of 7,0 × 10[3] cells/well in 100 µl of culture medium. After 24 h, cells were treated with the compounds at three different concentrations (1 µM, 10 µM and 50 µM) for 72 h. Following treatments, 0.5 mg/ml of 3-[4,5-dimethylthiazol-2-yl]-2,5-diphenyltetrazolium bromide (MTT) (Sigma Aldrich) was added to each well and incubated for 4 h at 37 °C. Finally, DMSO was used to dissolve formazan salts and absorbance was measured at 570 nm in a microplate reader (Biotek Synergy-HT). […]
(§2) Compound 3 was preliminarily assessed for its cytotoxic activity towards human prostate and lung cancer cell lines (DU145 and A549, respectively), in which the overexpression of the HO-1 has been confirmed[46]^,[47]. […] Cell survival was calculated compared to untreated controls for 72 h. At the end of treatment, cell viability was evaluated using the MTT assay. […]

[2] = test system: human prostate cancer cells (DU145); test: MTT cell viability assay, DU145; format: cell-based; details: 72 h
Protocol: as §1, §2

HO-1 = target: T1, HO-1 (Rattus norvegicus, UniProt P06762); test: HO-1 enzymatic activity in the microsomal fraction of rat spleen (bilirubin formation); format: biochemical; details: mean ± SD of triplicate assays
T1 construct: selected in order to use the most native (i.e. closest to in vivo) forms of HO-1; from tissue; host or cells: rat spleen microsomal fraction (male Sprague-Dawley rats)
T1 sequence (P06762 1-289): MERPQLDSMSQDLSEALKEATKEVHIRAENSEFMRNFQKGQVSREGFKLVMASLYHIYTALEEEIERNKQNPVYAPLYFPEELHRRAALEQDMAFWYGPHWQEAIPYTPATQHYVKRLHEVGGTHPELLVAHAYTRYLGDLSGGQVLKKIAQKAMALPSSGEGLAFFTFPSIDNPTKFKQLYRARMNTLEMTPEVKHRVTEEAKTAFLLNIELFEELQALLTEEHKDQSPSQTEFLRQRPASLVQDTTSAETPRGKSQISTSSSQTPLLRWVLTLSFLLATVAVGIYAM
Protocol: Since the dominance of HO-1 protein in the rat spleen has been well documented, HO-1 was obtained from rat spleen as the microsomal fraction prepared by differential centrifugation. This particular microsomal preparation was selected in order to use the most native (i.e. closest to in vivo) forms of HO-1. Spleen (Sprague-Dawley rats) microsomal fractions were prepared according to the procedure outlined by Ryter et al.[33]. The experiments reported in the present paper complied with current Italian law and met the guidelines of the Institutional Animal Care and Use Committee of […] OF HEALTH (Directorate General for Animal Health and Veterinary Medicines) (Italy). […]
Liver cytosol has been used as a source of BVR. […] The 100,000 g supernatant was saved and then stored in small amounts at −80 °C after its protein concentration was measured.
The HO-1 activity was determined by measuring the bilirubin formation using the difference in absorbance at 464 to 530 nm as described by Ryter et al.[33]. […] After recovering the chloroform phase, the amount of bilirubin formed was measured with a double-beam spectrophotometer as OD464-530 nm (extinction coefficient, […] for bilirubin). […]
Inhibition activity assay for HO-1 was performed by extracting the enzyme from the rat spleen microsomal fraction. […] Results are expressed as enzyme inhibition activity (IC50) in μM (Table S2, Supplemental material).

[3] = Chemical stability of 3 in buffer solutions at different pHs (HPLC); format: physicochemical; details: 37 °C
Protocol: The HPLC analysis of samples at various time intervals from in vitro stability in different buffers and porcine esterase solution was performed on Shimadzu Prominence-i LC-2030C 3 D Plus equipped with RID20A. Detector chromatographic separation were carried out using Chromolith SpeedROD RP […], Merck. Spectra were analysed in 200–800 nm range with 1.2 nm resolution. The column was maintained at 30 °C and eluted under gradient conditions from 100% to 0% of eluent A over 3 min, at a flow rate of 5 ml min^−1. Eluent A: water/trifluoroacetic acid (0.1%, v/v); eluent B: acetonitrile/ trifluoroacetic acid (0.1%, v/v).
A stock solution of compound 3 in DMSO (3.0 mg/mL) was prepared. To a test tube containing 0.9 ml of the corresponding Acetate (pH = 2.0) or PBS buffer solution (pH = 7.4 and 8.0, respectively), 0.1 ml of stock solution was added, and the mixture stirred and thermostated in a sand bath at 37 °C. Aliquots (0.1 ml) were withdrawn at specific time intervals and transferred to sample vials containing acetonitrile (0.9 ml). The percentage of compound remaining was followed by HPLC analysis. The retention time (tR) of compound 1, 2, and 3 were 0.74, 0.89, and 0.95 min, respectively. All the experiments were performed in triplicate.
0.001 g of lyophilised powder of esterase from the porcine liver (Sigma-Aldrich, St. Louis, Missouri, USA) was reconstituted in 1.0 ml PBS buffer (0.01 M, pH 7.4) to make an aqueous porcine esterase solution (5 U/mL), and then pre-thermostated at 37 °C. To a test tube containing 1.85 ml of PBS buffer, 0.15 ml from the stock solution of the test compound was added. The mixture was then stirred and thermostated in a sand bath at 37 °C, and 1.0 ml of the porcine esterase solution was added to initiate the enzymatic reaction. For the negative control reaction, the volume of porcine esterase solution was replaced by phosphate buffer. Aliquots (0.3 ml) were withdrawn at 0, 30, 60, 120, 180, and 240 min, and quenched with cold acetonitrile (0.7 ml)[28]. The samples were centrifuged for 6 min at 10,000 rpm, and supernatants were analysed by HPLC to check the amounts (area under the curve, AUC) of the remaining intact compound. All the experiments were performed in triplicate. Pseudo-first-order rate constant for the hydrolysis was determined from the slope of linear plots of the natural logarithm (ln) of the AUC of the peak at time t (AUCt) against time. Half-life (t1/2) was calculated according to Equation (1): (1) t1/2 = ln 2/k were k is the pseudo-first-order rate constant.
The chemical stability of 3 was evaluated at different pH values to mimic physiological conditions, including gastrointestinal (GI) tract (pH = 2.0), human plasma (pH = 7.4), and pancreatic fluid (pH = 8.0). As a result, the pH value strongly affected the chemical stability and hydrolysis rate of the hybrid 3 (Figure 2).

[4] = parameters: method as in PMID 29454190; details: predicted; ref [34]; cited from earlier work
[5] = parameters: method as in PMID 29454190; details: predicted, ref [34], cited from earlier work

IC50 ([1]; Homo sapiens, A549 cells, MTT): 0.98 ± 0.13 µM | IC50 ([2]; Homo sapiens, DU-145, DU145 cells, MTT): 31.7 ± 0.92 µM
Compound: O=c1[nH]cc(F)c(=O)[nH]1 [Compound 5-FU, 5-Fluorouracil, reference compound]

melting point: 64 to 66.5 °C | IC50 (HO-1): 105 ± 5.8 µM
Compound: O=C(O)CCC(=O)OC(Cn1ccnc1)c1cccc(Br)c1 (centres unmarked) [Compound 2, 4‐[1‐(3‐bromophenyl)‐2‐(1H‐imidazol‐1‐yl)ethoxy]‐4‐oxobutanoic acid]

half-life at 0.15 mg/mL ([3]; PBS buffer without esterase, PBS buffer (pH = 7.4), no esterase, read-out: Half-life (t1/2) of hydrolysis): 28.1 h | % Compound remaining ([3]; pH = 2.0, 0 h): 100 ± 0.0% | % Compound remaining ([3]; pH = 2.0, 24 h): 94.2 ± 0.9% and 94.2% | % Compound remaining ([3]; pH = 2.0, 48 h): 92.2 ± 0.6% | % Compound remaining ([3]; pH = 2.0, 72 h): 86.8 ± 6.0% | % Compound remaining ([3]; pH = 2.0, 96 h): 77.1 ± 6.5% | % Compound remaining ([3]; pH = 2.0, 168 h): 73.5 ± 4.7% | % Compound remaining ([3]; pH = 7.4, 0 h): 100 ± 0.0% | % Compound remaining ([3]; pH = 7.4, 24 h): 77.3 ± 3.9% and 77.3% | % Compound remaining ([3]; pH = 7.4, 48 h): 71.2 ± 4.5% | % Compound remaining ([3]; pH = 7.4, 72 h): 52.6 ± 3.8% | % Compound remaining ([3]; pH = 7.4, 96 h): 34.7 ± 2.2% | % Compound remaining ([3]; pH = 7.4, 168 h): 18.0 ± 4.2% | % Compound remaining ([3]; pH = 8.0, 0 h): 100 ± 0.0% | % Compound remaining ([3]; pH = 8.0, 24 h): 50.4 ± 2.4% and 50.4% | % Compound remaining ([3]; pH = 8.0, 48 h): 36.1 ± 2.1% | % Compound remaining ([3]; pH = 8.0, 72 h): 19.7 ± 1.6% | IC50 (HO-1): 82 ± 2.1 µM
Compound: O=C(CCC(=O)OC(Cn1ccnc1)c1cccc(Br)c1)OCn1cc(F)c(=O)[nH]c1=O (centres unmarked) [Compound 3, 1‐[1‐(3‐bromophenyl)‐2‐(1H‐imidazol‐1‐yl)ethyl]4‐(5‐fluoro‐2,4‐dioxo‐1,2,3,4‐tetrahydropyrimidin‐1‐yl)methyl butanedioate]

Compound: OC(Cn1ccnc1)c1cccc(Br)c1 (centres unmarked) [Compound 1, 1–(3-bromophenyl)-2-(1H-imidazol-1-yl)ethanol]
Toxicity prediction: Irritant [4]: none | Toxicity prediction: Mutagenic [4]: none | Toxicity prediction: Reproductive Effects [4]: none | Toxicity prediction: Tumorigenic [4]: none | Effect on cell viability ([1]; A549 cells, 1, 10 and 50 μM): no cytotoxic effect | HIA (%) ([5]; human intestinal absorption): 96.1% | Papp ([5]; in vitro Caco-2 cell permeability): 2.96 ×10⁻⁶ cm/s | PPB (%) ([5]; in vitro plasma protein binding): 65% | BBB (Cbrain/Cblood) ([5]; in vivo blood-brain barrier penetration): 0.7 Cbrain/Cblood | Effect on cell viability ([2]; DU145 cells, 1, 10 and 50 μM): no cytotoxic effect
